Where “and” joins values, the source holds several entries; their conditions need not be identical. Equal entries are not always repeated.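 Five compound concentrations were applied to cells in 96-well plates for 48 hours; endpoints were derived by simple linear interpolation of the resulting dose-response curve. GI50 = concentration required for 50% inhibition of growth. TGI is the concentration that stops growth completely.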
How the values were obtained:
Experiment in all cases: DTP human tumour cell line panel, 48 h
LOX IMVI melanoma = system: LOX IMVI melanoma
HCT-15 colon = system: HCT-15 colon
SN12C renal = system: SN12C renal
SK-MEL-28 melanoma = system: SK-MEL-28 melanoma
EKVX NSCLC = system: EKVX NSCLC
SNB-19 CNS = system: SNB-19 CNS
CAKI-1 renal = system: CAKI-1 renal
OVCAR-8 ovarian = system: OVCAR-8 ovarian
UO-31 renal = system: UO-31 renal
SR leukemia = system: SR leukemia

Row | Structure (SMILES) | GI50 (LOX IMVI melanoma) [µM] | TGI (LOX IMVI melanoma) [µM] | GI50 (HCT-15 colon) | TGI (HCT-15 colon) [µM] | GI50 (SN12C renal) [µM] | TGI (SN12C renal) [µM] | GI50 (SK-MEL-28 melanoma) [µM] | TGI (SK-MEL-28 melanoma) [µM] | GI50 (EKVX NSCLC) [µM] | TGI (EKVX NSCLC) [µM] | GI50 (SNB-19 CNS) [µM] | TGI (SNB-19 CNS) [µM] | GI50 (CAKI-1 renal) | TGI (CAKI-1 renal) [µM] | GI50 (OVCAR-8 ovarian) [µM] | TGI (OVCAR-8 ovarian) [µM] | GI50 (UO-31 renal) [µM] | TGI (UO-31 renal) | TGI (SR leukemia) [µM] | GI50 (SR leukemia) [µM]
1 | Cc1ccc(S(=O)(=O)N(C)C)cc1[N+](=O)[O-] | > 100 | > 100 | > 100 µM | > 100 | > 100 | > 100 | > 100 | > 100 | > 100 | > 100 | > 100 | > 100 | > 100 µM | > 100 | > 100 | > 100 | 21.5 | > 100 µM | – | –
2 | COC(=O)OCC1OC(N2C(=O)NC(=O)C(I)C2N=[N+]=[N-])CC1OC(=O)OC (stereo unspecified) | – | > 100 | – | > 100 | – | > 100 | – | > 100 | – | – | – | > 100 | – | > 100 | – | > 100 | – | > 100 µM | > 100 | –
3 | COc1ccc(/C=C2/CN(C(=O)c3ccccc3F)C/C(=C\c3ccc(OC)cc3)C2=O)cc1 | 1.66 | 3.24 | 2.05 µM | 6.62 | 2.78 | 10.9 | 2.72 | 7.93 | – | – | 6.21 | 20.7 | 4.87 µM | > 100 | 3.4 | 85.1 | 1.9 | 6.69 µM | 6.33 | 0.884
4 | O=[N+]([O-])c1ccccc1S(=O)c1ccccc1 (stereo unspecified) | – | > 100 | – | > 100 | – | > 100 | – | > 100 | – | – | – | > 100 | – | > 100 | – | > 100 | – | > 100 µM | > 100 | –
5 | COc1cc2c(cc1O)[C@H](C)C(c1ccc(Cl)cc1)O2 (stereo partly specified) | – | 29.4 | – | 27.7 | – | – | – | > 100 | – | 92.3 | – | > 100 | – | 49.2 | – | – | – | 79.4 µM | – | –
6 | COc1ccc(C(CC(=O)c2ccccc2)C(C(=O)c2ccccc2)C(c2ccc(OC)cc2)C2C(=O)NC(=O)NC2=O)cc1 (stereo unspecified) | 9.38 | > 100 | 21.9 µM | > 100 | 24.2 | > 100 | 23.7 | > 100 | 12.5 | > 100 | 13.7 | > 100 | 2.85 µM | 20.3 | 24.7 | 68.7 | 13.5 | 47.7 µM | – | –
7 | O=C1Nc2ccc(F)c3c(OCCO)cc(-c4ccc[nH]4)c1c23 | 1.19 | 5.38 | 0.957 µM | 7.87 | 1.11 | 9.83 | 4.43 | 15.1 | – | – | 3.66 | 14.9 | 0.393 µM | 3.33 | 2.76 | 18.3 | 0.632 | 4.05 µM | 5.51 | 0.963
8 | Nc1nc2ncn(CCO)c2c(=O)[nH]1 | – | > 100 | – | > 100 | – | > 100 | – | > 100 | – | > 100 | – | > 100 | – | – | – | > 100 | – | > 100 µM | > 100 | –
9 | CN(C)CCC1(C2=CCCC2)CC/C(=C\c2ccc3c(c2)OCO3)C1=O (stereo unspecified) | – | – | – | 29 | – | 28.8 | – | 27.4 | – | 29.3 | – | 43.5 | – | – | – | 29 | – | 20.2 µM | – | –
10 | Cc1oc2ccccc2c(=O)c1Cn1nnc2ccccc21 | – | > 100 | – | > 100 | – | > 100 | – | > 100 | – | > 100 | – | > 100 | – | – | – | > 100 | – | > 100 µM | > 100 | –
11 | COc1ccc(CNc2cc(OC)cc(OC)c2)cc1 | – | > 100 | > 100 µM and 46.6 µM | > 100 | > 70.1 | > 100 | – | > 100 | – | > 100 | – | > 100 | > 100 µM and 34.6 µM | > 100 | – | > 100 | – | > 100 µM and 97.8 µM | – | –
12 | CS(=O)(=O)NNS(=O)(=O)c1ccc(Br)cc1 | – | > 100 | – | > 100 | – | – | – | > 100 | – | > 100 | – | > 100 | – | > 100 | – | > 100 | – | > 100 µM | – | –
13 | O=CC1=CCCC2(C1)OCCO2 | – | > 100 | – | > 100 | – | > 100 | – | > 100 | – | > 100 | – | > 100 | – | > 100 | – | > 100 | – | > 100 µM | – | –
14 | CC(=O)O[C@]1(C(C)=O)CC[C@H]2[C@@H]3C[C@H](C)C4=CC(=O)C=C[C@]4(C)[C@@]3(F)[C@@H](O)C[C@@]21C | – | > 100 | – | > 100 | – | – | – | > 100 | – | > 100 | – | > 100 | – | > 100 | – | – | – | 98.9 µM | > 100 | –
15 | O=c1/c(=C/c2cccc3ccccc23)sc2nc3ccccc3n12 | – | > 100 | – | > 100 | – | > 100 | – | > 100 | – | > 100 | – | > 100 | – | > 100 | – | > 100 | – | > 100 µM | – | –
16 | O=C1OCC(c2ccc(O)c(O)c2)=C1c1cc(O)c(O)c(O)c1 | 19.1 | 36.8 | 19.3 µM | 44.1 | 15.8 | 29.6 | 38.5 | > 100 | 70.6 | > 100 | 25.3 | > 100 | 14.3 µM | 27.9 | 75 | > 100 | 63.4 | > 100 µM | – | –
17 | N=C(N)/N=C(/C=C/c1ccccc1)CC1OC(=O)c2ccccc21 (stereo unspecified) | – | > 100 | – | > 100 | – | > 100 | – | – | – | > 100 | – | > 100 | – | > 100 | – | > 100 | – | > 100 µM | > 100 | –
18 | COc1ccc(CC(=O)c2cc(OC)c(OC)cc2C)cc1OC | – | – | – | > 100 | – | > 100 | – | > 100 | – | > 100 | – | > 100 | – | > 100 | – | > 100 | – | > 100 µM | – | –
19 | N#C/C(=C\c1ccc(CP(=O)(O)O)cc1)C(N)=O | – | > 100 | – | > 100 | – | > 100 | – | > 100 | – | > 100 | – | > 100 | – | > 100 | – | > 100 | – | > 100 µM | – | –
20 | CCCCCCC1CCC2CCCC(C)N12 (stereo unspecified) | – | – | – | 89.6 | – | > 100 | – | > 100 | – | > 100 | – | > 100 | – | > 100 | – | > 100 | – | > 100 µM | 58.4 | –

From PubChem BioAssay (NCI)
